Laboratory results published in ChEMBL document CHEMBL3272117, “Synthesis of 1-(4-thio-beta-D-ribofuranosyl)-1,2,4-triazole-3-carboxamide” (J Med Chem, 1976).
Calls of active or inactive are those of the source. The rule behind the calls is not given here.

How the values were obtained:
Human alphaherpesvirus 1 = test: Antiviral activity against Herpes simplex virus type 1 infected in human KB cells; format: functional, organism-based
KB = test: Antiviral activity against Rhinovirus type 13 infected in human KB cells; format: functional, cell-based; conditions: Human rhinovirus A13
Human respirovirus 3 = test: Antiviral activity against Parainfluenza virus type 3 infected in human KB cells; format: functional, organism-based

Compound	Activity (Human alphaherpesvirus 1)	Activity (KB)	Activity (Human respirovirus 3)
NC(=O)c1ncn([C@@H]2S[C@H](CO)[C@@H](O)[C@H]2O)n1	Active	–	–
NC(=O)c1ncn([C@@H]2O[C@H](CO)[C@@H](O)[C@H]2O)n1	Active	Active	Active
